# According to ChEMBL document CHEMBL1201862, “PubChem BioAssay data set” (2004):
#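 Tested at 5 concentrations; 48 h exposure; 96-well plates; endpoints linearly interpolated, else capped at highest concentration. Abbreviation: GI50, concentration required for 50% inhibition of growth.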 Activity calls are given as the source filed them. Cut-off read from the data, not from the text of the source: active = GI50 up to about 1.1 µM and inactive = higher.
# What was measured:
# Experiment in all cases: NCI-60 cell line screen, 48 h
# [1] = test system: T47D
# [2] = test system: LOX IMVI
# [3] = test system: EKVX
# [4] = test system: SF-295
# [5] = test system: HCT-116
# [6] = test system: NCI-H460
# [7] = test system: HOP-62
# [8] = test system: SR
# [9] = test system: OVCAR-4
# [10] = test system: PC-3
# [11] = test system: CCRF-CEM
# [12] = test system: SK-MEL-2
# [13] = test system: HL-60
# [14] = test system: SK-MEL-5
# [15] = test system: CAKI-1
# [16] = test system: BT-549
# [17] = test system: COLO 205
# [18] = test system: UACC-62
# [19] = test system: K562
# [20] = test system: SW-620
# [21] = test system: A549
# [22] = test system: 786-0
# [23] = test system: A498
# [24] = test system: M14
# [25] = test system: Malme-3M
# [26] = test system: OVCAR-8
# [27] = test system: DU-145
# [28] = test system: SF-268
# [29] = test system: HT-29
# [30] = test system: OVCAR-5
# [31] = test system: SK-OV-3
# [32] = test system: MDA-N
# [33] = test system: HCT-15
# [34] = test system: KM12
# [35] = test system: SF-539
# [36] = test system: IGROV-1
# [37] = test system: OVCAR-3
# [38] = test system: RPMI-8226
# [39] = test system: MDA-MB-435
# [40] = test system: SNB-19
# [41] = test system: NCI/ADR-RES
# [42] = test system: UO-31
# [43] = test system: UACC-257
# [44] = test system: MCF7
# [45] = test system: HCC 2998
# [46] = test system: U-251
# [47] = test system: Hs-578T
# [48] = test system: NCI-H522
# [49] = test system: ACHN
# [50] = test system: SK-MEL-28
# [51] = test system: NCI-H23
# [52] = test system: MOLT-4
smiles,measurement,setting,value
CN1CCN(Cc2ccc(C(=S)Nc3ccccc3)s2)CC1,GI50,[1],59.2 µM (inactive)
same,GI50,[2],15.7 µM (inactive)
same,GI50,[3],65.3 µM (inactive)
same,GI50,[4],32.3 µM (inactive)
same,GI50,[5],42.5 µM (inactive)
same,GI50,[6],36.4 µM (inactive)
same,GI50,[7],93.8 µM (inactive)
same,GI50,[8],21.2 µM (inactive)
same,GI50,[9],54.1 µM (inactive)
same,GI50,[10],69.7 µM (inactive)
same,GI50,[11],24 µM (inactive)
same,GI50,[12],41.8 µM (inactive)
same,GI50,[13],19.9 µM (inactive)
same,GI50,[14],17.6 µM (inactive)
same,GI50,[15],> 100 µM (inactive)
same,GI50,[16],15.9 µM (inactive)
same,GI50,[17],22.3 µM (inactive)
same,GI50,[18],20.2 µM (inactive)
same,GI50,[19],25.9 µM (inactive)
same,GI50,[20],26.7 µM (inactive)
same,GI50,[21],55 µM (inactive)
same,GI50,[22],31.9 µM (inactive)
same,GI50,[23],33.7 µM (inactive)
same,GI50,[24],16.7 µM (inactive)
same,GI50,[25],89.5 µM (inactive)
same,GI50,[26],14.5 µM (inactive)
same,GI50,[27],> 100 µM (inactive)
same,GI50,[28],> 100 µM (inactive)
same,GI50,[29],19.6 µM (inactive)
same,GI50,[30],45.8 µM (inactive)
same,GI50,[31],86.1 µM (inactive)
same,GI50,[32],35.6 µM (inactive)
same,GI50,[33],21 µM
same,GI50,[34],36.3 µM (inactive)
same,GI50,[35],82.4 µM (inactive)
same,GI50,[36],10.4 µM (inactive)
same,GI50,[37],> 100 µM (inactive)
same,GI50,[38],28.6 µM (inactive)
same,GI50,[39],31.9 µM (inactive)
same,GI50,[40],> 100 µM (inactive)
same,GI50,[41],32.9 µM (inactive)
same,GI50,[42],36.3 µM (inactive)
same,GI50,[43],33.5 µM (inactive)
same,GI50,[44],41.9 µM (inactive)
same,GI50,[45],33.1 µM (inactive)
same,GI50,[46],64.7 µM (inactive)
same,GI50,[47],39.2 µM (inactive)
same,GI50,[48],31 µM (inactive)
same,GI50,[49],92 µM (inactive)
same,GI50,[50],15.5 µM (inactive)
same,GI50,[51],18.5 µM (inactive)
same,GI50,[52],36.8 µM (inactive)
